Read-outs that look alike come from different tables or passages of the source.
Columns and labels:
[1] = target: T1, BRD4 BD2 (Homo sapiens, UniProt O60885); test: AlphaScreen binding assay, BRD4 Bromodomain 2
T1 construct: made in house
In short: (§1)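 Compound dilution series were mixed with His-tagged BRD4 bromodomain and biotinylated tetra-acetylated H4 (1-21) peptide at pH 7.3 (BD1 and peptide at 50 nM, BD2 and peptide at 100 nM). Donor and acceptor beads were then added, and plates were equilibrated at least 1 h before reading. IC50 values were fitted with a four-parameter logistic model.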

[2] = tested on: MV4-11 cells; test: Oncology cell growth assay (3-day proliferation, CellTiter-Glo); assay type: cell-based; settings: Homo sapiens, AML cell line MV4-11, 72 hours, compounds grouped by IC50 range, read-out: MV4-11 IC50 (inhibition of proliferation, gIC50)
In short: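 A 3-day proliferation test used MV4-11 cells seeded at 3000 per well with eight compound concentrations (10 μM top, 3-fold dilution) at 37° C in 5% CO2. CellTiter-Glo luminescence defined viable cell signal. A four-parameter logistic curve against DMSO and background wells gave the gIC50.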

[3] = target: T2, BRD4 BD1 (Homo sapiens, UniProt O60885); test: AlphaScreen binding assay, BRD4 Bromodomain 1
T2 construct: made in house
In short: as §1

Compound: CNC(=O)CN(C)C(=O)c1ccc(-c2ccc3c(c2)N(C(=O)OC(C)C)C[C@H](C)N3C(=O)C2CC2)cc1 [Example I-562]
- IC50 [1]: 50 to 500 nM
- IC50 ([2]; MV4-11, 72 h): 100 to 500 nM
- IC50 [3]: 100 to 1000 nM

Compound: CC(=O)N1c2ccc(-c3cnn(C4CC4)c3)cc2N(C(=O)Oc2ccc(Cl)cc2)C[C@@H]1C [Example I-260]
- IC50 [1]: < 50 nM
- IC50 ([2]; MV4-11, 72 h): 100 to 500 nM
- IC50 [3]: < 100 nM

Compound: CC(=O)N1c2ccc(-c3cnn(CC4CC4(F)F)c3)cc2N(C(=O)OC(C)C)C[C@@H]1C (stereo partly drawn) [Example I-678]
- IC50 [1]: 50 to 500 nM
- IC50 ([2]; MV4-11, 72 h): 100 to 500 nM
- IC50 [3]: 100 to 1000 nM

Compound: CC(=O)N1c2cc(Cl)c(-c3cnn(C4CC4)c3)cc2N(C(=O)OC(C)C)C[C@@H]1C [Example I-208, Isopropyl (S)-4-acetyl-6-chloro-7-(1-cyclopropyl-1H-pyrazol-4-yl)-3-methyl-3,4-dihydroquinoxaline-1 (2H)-carboxylate]
- IC50 [1]: > 500 nM
- IC50 ([2]; MV4-11, 72 h): > 500 nM
- IC50 [3]: 1000 to 10000 nM

Compound: CC(=O)N1c2ccc(-c3ccc(C(=O)NC4CC4)cc3)cc2N(C(=O)c2ccco2)C[C@@H]1C [Example I-292]
- IC50 [1]: > 500 nM
- IC50 ([2]; MV4-11, 72 h): 100 to 500 nM
- IC50 [3]: 1000 to 10000 nM

Compound: CC(=O)Nc1cc2c(cc1-c1cnn(CC(C)(C)O)c1)N(C(=O)OC(C)C)C[C@H](C)N2C(C)=O [Example I-205, Isopropyl (S)-6-acetamido-4-acetyl-7-(1-(2-hydroxy-2-methylpropyl)-1H-pyrazol-4-yl)-3-methyl-3,4-dihydroquinoxaline-1(2H)-carboxylate]
- IC50 [1]: 50 to 500 nM
- IC50 ([2]; MV4-11, 72 h): > 500 nM
- IC50 [3]: 100 to 1000 nM

Compound: CCS(=O)(=O)c1cccc(-c2ccc3c(c2)N(C(=O)C2CCC2)C[C@H](C)N3C(C)=O)c1 [Example I-1091]
- IC50 [1]: 50 to 500 nM
- IC50 ([2]; MV4-11, 72 h): > 500 nM
- IC50 [3]: 1000 to 10000 nM

Compound: CC(=O)N1c2ccc(-c3ccc(N4CCCS4(=O)=O)cc3)cc2N(C(=O)Oc2cccnc2)C[C@@H]1C [Example I-1286]
- IC50 [1]: 50 to 500 nM
- IC50 ([2]; MV4-11, 72 h): 100 to 500 nM
- IC50 [3]: 100 to 1000 nM

Compound: CC(=O)N1c2ccc(-c3cnn(C4CC4)c3)cc2N(C(=O)OCCC(F)(F)F)C[C@@H]1C [Example I-78, (S)-3,3,3-trifluoropropyl 4-acetyl-7-(1-cyclopropyl-1H-pyrazol-4-yl)-3-methyl-3,4-dihydroquinoxaline-1(2H)-carboxylate]
- IC50 [1]: 50 to 500 nM
- IC50 ([2]; MV4-11, 72 h): 100 to 500 nM
- IC50 [3]: 100 to 1000 nM

Compound: CC(=O)N1c2ccc(-c3ccc4c(c3)CS(=O)(=O)N4)cc2N(C(=O)OC(C)C)C[C@@H]1C [Example I-1179]
- IC50 [1]: 50 to 500 nM
- IC50 ([2]; MV4-11, 72 h): 100 to 500 nM
- IC50 [3]: 100 to 1000 nM

Compound: CCS(=O)(=O)Nc1ccc(-c2ccc3c(c2)N(C(=O)OC2CCCCC2)C[C@H](C)N3C(C)=O)cc1 [Example I-1269]
- IC50 [1]: 50 to 500 nM
- IC50 ([2]; MV4-11, 72 h): < 100 nM
- IC50 [3]: 100 to 1000 nM

Compound: CCS(=O)(=O)Nc1cccc(-c2ccc3c(c2)N(C(=O)C2CCC2)C[C@H](C)N3C(C)=O)c1 [Example I-1055]
- IC50 [1]: 50 to 500 nM
- IC50 ([2]; MV4-11, 72 h): > 500 nM
- IC50 [3]: 1000 to 10000 nM

Compound: CC(=O)N1c2ccc(-c3cnn(C4CNC4)c3)cc2N(C(=O)OC2CC(F)(F)C2)C[C@@H]1C [Example I-152, (S)-3,3-difluorocyclobutyl 4-acetyl-7-(1-(azetidin-3-yl)-1H-pyrazol-4-yl)-3-methyl-3,4-dihydroquinoxaline-1(2H)-carboxylate]
- IC50 [1]: < 50 nM
- IC50 ([2]; MV4-11, 72 h): 100 to 500 nM
- IC50 [3]: 100 to 1000 nM

Compound: CC(=O)N1c2ccc(-c3ccc(NS(C)(=O)=O)cc3)cc2N(C(=O)OC2CCC(F)(F)CC2)C[C@@H]1C [Example I-31, (S)-4,4-difluorocyclohexyl 4-acetyl-3-methyl-7-(4-(methylsulfonamido)phenyl)-3,4-dihydroquinoxaline-1(2H)-carboxylate]
- IC50 [1]: 50 to 500 nM
- IC50 ([2]; MV4-11, 72 h): 100 to 500 nM
- IC50 [3]: 100 to 1000 nM

Compound: CC(=O)N1c2ccc(-c3cnn(C4CCOCC4)c3)cc2N(C(=O)OC2CCC(F)(F)CC2)C[C@@H]1C [Example I-2, (S)-4,4-difluorocyclohexyl 4-acetyl-3-methyl-7-(1-(tetrahydro-2H-pyran-4-yl)-1H-pyrazol-4-yl)-3,4-dihydroquinoxaline-1(2H)-carboxylate]
- IC50 [1]: 50 to 500 nM
- IC50 ([2]; MV4-11, 72 h): 100 to 500 nM
- IC50 [3]: 100 to 1000 nM

Compound: C[C@H]1CN(C(=O)C2CC2)c2cc(-c3ccc(N4CCS(=O)(=O)CC4)cc3)ccc2N1C(=O)C1CC1 [Example I-436]
- IC50 [1]: 50 to 500 nM
- IC50 ([2]; MV4-11, 72 h): 100 to 500 nM
- IC50 [3]: 100 to 1000 nM

Compound: CC(=O)N1c2ccc(-c3ccc(N4CCCS4(=O)=O)cc3)cc2N(C(=O)Oc2ccc(F)cc2)C[C@@H]1C [Example I-1021]
- IC50 [1]: 50 to 500 nM
- IC50 ([2]; MV4-11, 72 h): < 100 nM
- IC50 [3]: 100 to 1000 nM

Compound: CC(=O)N1c2ccc(-c3ccccc3F)cc2N(C(=O)c2ccco2)C[C@@H]1C [Example I-795]
- IC50 [1]: 50 to 500 nM
- IC50 ([2]; MV4-11, 72 h): > 500 nM
- IC50 [3]: 1000 to 10000 nM

Compound: COC(=O)N1c2ccc(-c3cnn(C4CCOCC4)c3)cc2N(C(=O)OC(C)C)C[C@@H]1C [Example I-322]
- IC50 [1]: 50 to 500 nM
- IC50 ([2]; MV4-11, 72 h): 100 to 500 nM
- IC50 [3]: 100 to 1000 nM

Compound: CCOC(=O)N1C[C@H](C)N(C(C)=O)c2ccc(-c3cccc(NS(C)(=O)=O)c3)cc21 [Example I-1045]
- IC50 [1]: 50 to 500 nM
- IC50 ([2]; MV4-11, 72 h): > 500 nM
- IC50 [3]: 1000 to 10000 nM

Compound: COC(=O)N1c2ccc(-c3cnn(C4CCNCC4)c3)cc2N(C(=O)Oc2ccc(F)cc2)C[C@@H]1C [Example I-1151]
- IC50 [1]: 50 to 500 nM
- IC50 [2]: 100 to 500 nM
- IC50 [3]: 100 to 1000 nM

Compound: CC(=O)N1c2ccc(-c3ccc(S(=O)(=O)n4cccn4)cc3)cc2N(C(=O)OC(C)C)C[C@@H]1C [Example I-1118]
- IC50 [1]: > 500 nM
- IC50 ([2]; MV4-11, 72 h): > 500 nM
- IC50 [3]: 1000 to 10000 nM

Compound: COc1ccc(-c2ccc3c(c2)N(C(=O)OC(C)C)C[C@H](C)N3C(C)=O)cc1N1CCCS1(=O)=O [Example I-1170]
- IC50 [1]: 50 to 500 nM
- IC50 ([2]; MV4-11, 72 h): 100 to 500 nM
- IC50 [3]: 100 to 1000 nM

Compound: COC(=O)N1c2ccc(-c3cnn(CCS(C)(=O)=O)c3)cc2N(C(=O)OC(C)C)C[C@@H]1C [Example I-318]
- IC50 [1]: 50 to 500 nM
- IC50 ([2]; MV4-11, 72 h): > 500 nM
- IC50 [3]: 100 to 1000 nM

Compound: CNC(=O)Cn1cc(-c2ccc3c(c2)N(C(=O)OC(C)C)C[C@H](C)N3C(C)=O)cn1 [Example I-134, (S)-isopropyl 4-acetyl-3-methyl-7-(1-(2-(methylamino)-2-oxoethyl)-1H-pyrazol-4-yl)-3,4-dihydroquinoxaline-1(2H)-carboxylate]
- IC50 [1]: 50 to 500 nM
- IC50 ([2]; MV4-11, 72 h): > 500 nM
- IC50 [3]: 100 to 1000 nM

Compound: CC(=O)N1c2ccc(-c3ccc(NS(C)(=O)=O)cc3)cc2N(C(=O)OC(C)C)C[C@@H]1C [Example I-345]
- IC50 [1]: 50 to 500 nM
- IC50 ([2]; MV4-11, 72 h): 100 to 500 nM
- IC50 [3]: 100 to 1000 nM

Compound: CC(=O)N1c2ccc(-c3cnn(CCC(F)(F)F)c3)cc2N(C(=O)C2CC2)C[C@@H]1C [Example I-150, (S)-1-(4-(cyclopropanecarbonyl)-2-methyl-6-(1-(3,3,3-trifluoropropyl)-1H-pyrazol-4-yl)-3,4-dihydroquinoxalin-1(2H)-yl)ethanone]
- IC50 [1]: < 50 nM
- IC50 ([2]; MV4-11, 72 h): > 500 nM
- IC50 [3]: 100 to 1000 nM

Compound: CC(=O)N1c2ccc(-c3ccc4c(c3)CCN4S(C)(=O)=O)cc2N(C(=O)OC(C)C)C[C@@H]1C [Example I-348]
- IC50 [1]: < 50 nM
- IC50 ([2]; MV4-11, 72 h): 100 to 500 nM
- IC50 [3]: 100 to 1000 nM

Compound: CC(=O)N1c2ccc(-c3cnn(CCF)c3)cc2N(C(=O)OC(C)C)C[C@@H]1C [Example I-666]
- IC50 [1]: 50 to 500 nM
- IC50 ([2]; MV4-11, 72 h): 100 to 500 nM
- IC50 [3]: 100 to 1000 nM

Compound: CC(=O)N1c2ccc(-c3cccc(S(=O)(=O)N(C)C)c3)cc2N(C(=O)C2CCC2)C[C@@H]1C [Example I-1047]
- IC50 [1]: 50 to 500 nM
- IC50 ([2]; MV4-11, 72 h): > 500 nM
- IC50 [3]: 1000 to 10000 nM

Compound: CC(=O)N1c2ccc(-c3ccc4c(c3)CS(=O)(=O)N4)cc2N(C(=O)C2CC2)C[C@@H]1C [Example I-1178]
- IC50 [1]: 50 to 500 nM
- IC50 ([2]; MV4-11, 72 h): > 500 nM
- IC50 [3]: 100 to 1000 nM

Compound: CC(=O)N1c2ccc(-c3ccc(NS(=O)(=O)C4CC4)cc3)cc2N(C(=O)C2CC2)C[C@@H]1C [Example I-351]
- IC50 [1]: 50 to 500 nM
- IC50 ([2]; MV4-11, 72 h): 100 to 500 nM
- IC50 [3]: 100 to 1000 nM

Compound: CCCn1cc(-c2ccc3c(c2)N(C(=O)c2ccco2)C[C@H](C)N3C(C)=O)cn1 [Example I-269]
- IC50 [1]: < 50 nM
- IC50 ([2]; MV4-11, 72 h): 100 to 500 nM
- IC50 [3]: 100 to 1000 nM
